Numbering of substitutions follows the chain as printed. “And” between values parts separate entries of the source, which are not always exact repeats. Identical values can stand only once.
Tests used:
Type in all cases: cell-based
[1] = target: T1, cysteine-substituted TMC1 constructs (Mus musculus, UniProt Q8R4P5, G411C); assay: Background current before and after MTSET treatment in Tmc1-knockout OHCs expressing cysteine-substituted TMC1; conditions: Tmc1-knockout OHCs expressing TMC1-G411C, individual cells
T1 construct: control full-length TMC1 (TMC1_WT); expressed in transfected cells; host or cells: Tmc1-knockout mouse OHCs, injectoporation
T1 sequence (Q8R4P5 1-757 G411C): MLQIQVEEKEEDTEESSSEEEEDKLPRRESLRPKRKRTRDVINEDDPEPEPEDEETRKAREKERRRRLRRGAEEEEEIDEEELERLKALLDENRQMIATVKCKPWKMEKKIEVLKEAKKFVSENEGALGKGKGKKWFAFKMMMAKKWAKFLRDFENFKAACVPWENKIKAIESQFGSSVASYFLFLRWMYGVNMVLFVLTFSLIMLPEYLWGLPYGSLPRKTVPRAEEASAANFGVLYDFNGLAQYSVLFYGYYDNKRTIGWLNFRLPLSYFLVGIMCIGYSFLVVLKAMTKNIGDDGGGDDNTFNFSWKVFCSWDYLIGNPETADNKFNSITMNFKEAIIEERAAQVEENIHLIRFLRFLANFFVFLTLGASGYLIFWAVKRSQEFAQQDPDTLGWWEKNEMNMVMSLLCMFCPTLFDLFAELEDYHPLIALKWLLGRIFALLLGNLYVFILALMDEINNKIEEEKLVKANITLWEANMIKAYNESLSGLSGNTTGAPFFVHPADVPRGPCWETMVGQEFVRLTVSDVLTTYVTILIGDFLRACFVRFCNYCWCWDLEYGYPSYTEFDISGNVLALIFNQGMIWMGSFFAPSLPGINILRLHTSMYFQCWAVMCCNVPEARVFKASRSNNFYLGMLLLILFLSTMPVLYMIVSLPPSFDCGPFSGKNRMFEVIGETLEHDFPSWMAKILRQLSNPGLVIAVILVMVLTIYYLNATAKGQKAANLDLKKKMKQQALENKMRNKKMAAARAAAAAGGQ
Experimental: (§1) Mouse Tmc1 and Tmc2 cDNAs were cloned into CMV-Script and pCDNA3.1- vectors, respectively. To obtain the Tmc1-deafness vector and amino-acid-substituted Tmc1 constructs, specific primers were designed and used for PCR (Supplementary File 1). […] In brief, the organ of Corti was isolated from P3 mice and cut into three pieces in Dulbecco’s modified Eagle’s medium/F12 with 1.5 μg/ml ampicillin. For electroporation, a glass pipette (2 μm tip diameter) was used to deliver cDNA plasmids (0.2 μg/μl in 1 × Hanks' balanced salt solution) to hair cells in the sensory epithelium. EGFP was used as an indicator for the selection of transfected hair cells. A series of three pulses at 60 V lasting 15 ms at 1 s intervals was applied to cochlear tissues by an electroporator (ECM Gemini X2, BTX, CA). The cochlear tissues were cultured for 1 day in vitro and then used for electrophysiological recording.
(§2) All experiments were performed at room temperature (20–25°C). Briefly, the basilar membrane with hair cells was acutely dissected from neonatal mice. […] The acutely isolated or cultured basilar membrane was used for electrophysiological recording within 1 h. […] Hair cells were recorded with a patch-clamp amplifier (EPC 10 USB and Patchmaster software, HEKA Elektronik, Lambrecht/Pfalz, Germany).
(§3) The sampling rate was 1 kHz for leak current recording, 50 kHz for the IV protocol and current-clamp recording, and 100 kHz for unitary channel recording. The voltage-clamp used a –70 mV holding potential, and the current-clamp was held at 0 pA. Only recordings with a current baseline <20 pA in NMDG solution were used for statistical analysis.

[2] = target: T2, cysteine-substituted TMC1 constructs (Mus musculus, UniProt Q8R4P5, T532C); assay: as above; conditions: Tmc1-knockout OHCs expressing TMC1-T532C, individual cells
T2 construct: control full-length TMC1 (TMC1_WT); expressed in transfected cells; host or cells: Tmc1-knockout mouse OHCs, injectoporation
T2 sequence (Q8R4P5 1-757 T532C): T1 sequence (Q8R4P5 1-757 G411C) with C411G, T532C
Experimental: as §1, §2, §3

TMC1-M412C = target: T3, TMC1-M412C (Mus musculus, UniProt Q8R4P5, M412C); assay: MET current under MTSET treatment in Tmc1;Tmc2 double-knockout OHCs expressing TMC1-M412C
T3 construct: control full-length TMC1 (TMC1_WT); expressed in transfected cells; host or cells: Tmc1;Tmc2 double-knockout mouse OHCs (P1 + 3 DIV), injectoporation
T3 sequence (Q8R4P5 whole entry M412C): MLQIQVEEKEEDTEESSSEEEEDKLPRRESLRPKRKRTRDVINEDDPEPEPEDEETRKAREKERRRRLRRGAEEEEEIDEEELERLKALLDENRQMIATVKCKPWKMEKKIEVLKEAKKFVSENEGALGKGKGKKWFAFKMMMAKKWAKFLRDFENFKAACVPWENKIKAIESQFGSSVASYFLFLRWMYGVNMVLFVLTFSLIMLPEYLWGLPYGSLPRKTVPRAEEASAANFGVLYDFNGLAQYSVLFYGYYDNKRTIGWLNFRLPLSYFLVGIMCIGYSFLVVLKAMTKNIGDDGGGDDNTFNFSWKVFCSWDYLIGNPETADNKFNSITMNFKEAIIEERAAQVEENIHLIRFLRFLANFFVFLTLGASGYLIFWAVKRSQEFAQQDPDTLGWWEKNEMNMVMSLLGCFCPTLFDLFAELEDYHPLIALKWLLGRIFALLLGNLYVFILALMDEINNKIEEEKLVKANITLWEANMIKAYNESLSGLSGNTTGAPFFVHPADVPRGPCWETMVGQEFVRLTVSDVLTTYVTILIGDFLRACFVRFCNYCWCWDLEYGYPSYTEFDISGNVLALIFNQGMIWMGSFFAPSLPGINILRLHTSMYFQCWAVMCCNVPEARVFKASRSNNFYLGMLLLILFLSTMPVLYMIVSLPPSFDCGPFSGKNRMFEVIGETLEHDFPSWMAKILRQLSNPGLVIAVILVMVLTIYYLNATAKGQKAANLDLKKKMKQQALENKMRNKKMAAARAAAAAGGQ
T3 sequence (Q4KL25 whole entry partner): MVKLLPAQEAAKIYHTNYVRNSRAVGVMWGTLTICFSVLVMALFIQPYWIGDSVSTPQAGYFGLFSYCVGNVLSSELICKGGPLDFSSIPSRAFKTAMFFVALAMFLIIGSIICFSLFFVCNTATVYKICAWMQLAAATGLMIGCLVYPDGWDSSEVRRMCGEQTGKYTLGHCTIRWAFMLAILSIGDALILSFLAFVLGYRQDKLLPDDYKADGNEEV
T3 sequence (Q8K467 29-153 partner): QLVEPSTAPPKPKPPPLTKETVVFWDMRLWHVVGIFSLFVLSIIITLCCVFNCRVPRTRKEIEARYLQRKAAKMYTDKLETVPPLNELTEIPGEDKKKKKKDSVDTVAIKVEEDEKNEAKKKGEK
T3 sequence (Q9Z309 whole entry partner): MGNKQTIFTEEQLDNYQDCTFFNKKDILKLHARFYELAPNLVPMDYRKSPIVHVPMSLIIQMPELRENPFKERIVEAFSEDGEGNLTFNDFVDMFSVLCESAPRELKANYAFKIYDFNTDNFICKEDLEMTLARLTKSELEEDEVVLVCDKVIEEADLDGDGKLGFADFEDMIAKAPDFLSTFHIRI

## C[N+](C)(C)CCSS(C)(=O)=O.[Br-] [MTSET, 2-(trimethylammonium)ethyl methanethiosulfonate, bromide]
[1]
  amplitude of the background current after MTSET treatment: -17.5539 and -22.5978 and -20.1413 and -23.0553 and -21.6542
[2]
  amplitude of the background current after MTSET treatment: -61.9555 and -32.5794 and -12.1284 and -34.0535 and -31.604
TMC1-M412C
  effect on the MET current amplitude: did change the MET current amplitude

Reference: paper PMC6853638, “TMC1 is an essential component of a leak channel that modulates tonotopy and excitability of auditory hair cells in mice” (eLife, 2019)
